Source: patent publication US7595404B2, “Thiazolyl-substituted carbocyclic 1,3-diones as pesticidal agents” (Bayer CropScience AG, priority 2001, dated 2009)

Experiments:
[1] = test system: Avena fatua; assay: Post-emergence test, Avena fatua; type: in vivo; conditions: post-emergence/greenhouse; 250 g a.i./ha; after three weeks
Protocol: (§1) • Solvent: 5 parts by weight of acetone • Emulsifier: 1 part by weight of alkylaryl polyglycol ether
(§2) To produce a suitable preparation of active compound, 1 part by weight of active compound is mixed with the stated amount of solvent, the stated amount of emulsifier is added and the concentrate is diluted with water to the desired concentration.
(§3) Test plants of a height of 5-15 cm are sprayed with the preparation of active compound such that the particular amounts of active compound desired are applied per unit area. The concentration of the spray liquor is chosen such that the particular amounts of active compound desired are applied in 1000 l of water/ha.
(§4) After three weeks, the degree of damage to the plants is rated in % damage in comparison to the development of the untreated control.
(§5) The figures denote: • 0% =no effect (like untreated control) • 100% =total destruction

[2] = test system: Sinapis; assay: Post-emergence test, Sinapis; type: in vivo; conditions: post-emergence/greenhouse; 250 g a.i./ha; after three weeks
Protocol: as §1, §2, §3, §4, §5

[3] = test system: Setaria; assay: Pre-emergence test, Setaria; type: in vivo; conditions: pre-emergence/greenhouse; 60 g a.i./ha; after three weeks
Protocol: as §1, §2
(§6) Seeds of the test plants are sown in normal soil. After about 24 hours, the soil is sprayed with the preparation of active compound such that the particular amounts of active compound desired are applied per unit area. The concentration of the spray liquor is chosen such that the particular amounts of active compound desired are applied in 1000 l of water/ha.
as §4, §5

[4] = test system: Wheat; assay: Pre-emergence test, Wheat; type: in vivo; conditions: pre-emergence/greenhouse; 60 g a.i./ha; after three weeks; crop
Protocol: as §1, §2, §6, §4, §5

[5] = test system: Digitaria; assay: Pre-emergence test, Digitaria; type: in vivo; conditions: pre-emergence/greenhouse; 60 g a.i./ha; after three weeks
Protocol: as §1, §2, §6, §4, §5

[6] = test system: caterpillars of the armyworm (Spodoptera frugiperda); assay: Spodoptera frugiperda test; type: in vivo; conditions: 500 ppm, dipped cabbage leaves
Protocol: Spodoptera Frugiperda Test • Solvent: 7 parts by weight of dimethylformamide • Emulsifier: 2 parts by weight of alkylaryl polyglycol ether To produce a suitable preparation of active compound, 1 part by weight of active compound is mixed with the stated amounts of solvent and emulsifier, and the concentrate is diluted with emulsifier-containing water to the desired concentration. Cabbage leaves (Brassica oleracea) are treated by being dipped into the preparation of active compound of the desired concentration and are populated with caterpillars of the armyworm (Spodoptera frugiperda) while the leaves are still moist. After the desired period of time, the kill in % is determined. 100% means that all caterpillar larvae have been killed; 0% means that none of the caterpillar have been killed.

[7] = test system: Setaria; assay: Post-emergence test, Setaria; type: in vivo; conditions: post-emergence/greenhouse; 250 g a.i./ha; after three weeks
Protocol: as §1, §2, §3, §4, §5

[8] = test system: Matricaria; assay: Pre-emergence test, Matricaria; type: in vivo; conditions: pre-emergence/greenhouse; 60 g a.i./ha; after three weeks
Protocol: as §1, §2, §6, §4, §5

[9] = test system: Pyricularia oryzae; type: cell-based; conditions: 50% inhibition of fungal growth, tested at 0.1, 1, 10 and 100 ppm, 22° C., 3-5 days, photometric 620 nm
[10] = test system: Alternaria solani; assay: Alternaria test (tomato)/protective; type: in vivo; conditions: protective, 100 g/ha, 3 days after inoculation
Protocol: Alternaria Test (Tomato)/Protective […] To produce a suitable preparation of active compound, 1 part by weight of active compound is mixed with the stated amounts of solvent and emulsifier, and the concentrate is diluted with water to the desired concentration. To test for protective activity, young plants are sprayed with the preparation of active compound at the stated application rate. After the spray coating has dried on, the plants are inoculated with an aqueous spore suspension of Alternaria solani. The plants are then placed in an incubation cabin at about […] and 100% relative atmospheric humidity.

[11] = test system: Septoria tritici; assay: In vitro test for the ED50 determination in microorganisms, Septoria tritici; type: cell-based; conditions: 50% inhibition of fungal growth, tested at 0.1, 1, 10 and 100 ppm, 22° C., 3-5 days, photometric 620 nm
[12] = test system: apple scab pathogen Venturia inaequalis; assay: Venturia test (apple)/protective; type: in vivo; conditions: protective, 100 g/ha, 10 days after inoculation
Protocol: Venturia Test (Apple)/Protective […] To produce a suitable preparation of active compound, 1 part by weight of active compound is mixed with the stated amounts of solvent and emulsifier, and the concentrate is diluted with water to the desired concentration. To test for protective activity, young plants are sprayed with the preparation of active compound at the stated application rate. After the spray coating has dried on, the plants are inoculated with an aqueous conidia suspension of the apple scab pathogen Venturia inaequalis and then remain in an incubation cabin at about 20° C. and 100% relative atmospheric humidity for 1 day. The plants are then placed in a greenhouse at about 21° C. and a relative atmospheric humidity of about 90%.

[13] = test system: Botrytis cinerea; assay: Botrytis test (bean)/protective; type: in vivo; conditions: protective, 500 g/ha, 2 days after inoculation
Protocol: Botrytis Test (Bean)/Protective
• Solvent: 24.5 parts by weight of acetone 24.5 parts by weight of dimethylacetamide • Emulsifier: 1 part by weight of alkyl-arylpolyglycol ether
To produce a suitable preparation of active compound, 1 part by weight of active compound is mixed with the stated amounts of solvent and emulsifier, and the concentrate is diluted with water to the desired concentration.
To test for protective activity, young plants are sprayed with the preparation of active compound at the stated application rate. After the spray coating has dried on, two small pieces of agar colonized by Botrytis cinerea are placed onto each leaf. The inoculated plants are placed in a dark chamber at about 20° C. and 100% relative atmospheric humidity.
2 days after the inoculation, the size of the infested areas on the leaves is evaluated. 0% means an efficacy which corresponds to that of the control, whereas an efficacy of 100% means that no infection is observed.

[14] = test system: Alopecurus; assay: Post-emergence test, Alopecurus; type: in vivo; conditions: post-emergence/greenhouse; 250 g a.i./ha; after three weeks
Protocol: as §1, §2, §3, §4, §5

[15] = test system: Soya bean; assay: Pre-emergence test, Soya bean; type: in vivo; conditions: pre-emergence/greenhouse; 60 g a.i./ha; after three weeks; crop
Protocol: as §1, §2, §6, §4, §5

[16] = test system: Sphaerotheca fuliginea; assay: Sphaerotheca test (cucumber)/protective; type: in vivo; conditions: protective, 100 g/ha, 7 days after inoculation
Protocol: Sphaerotheca Test (Cucumber)/Protective […] To produce a suitable preparation of active compound, 1 part by weight of active compound is mixed with the stated amounts of solvent and emulsifier, and the concentrate is diluted with water to the desired concentration. To test for protective activity, young plants are sprayed with the preparation of active compound at the stated application rate. After the spray coating has dried on, the plants are inoculated with an aqueous spore suspension of Sphaerotheca fuliginea. The plants are then placed in a greenhouse at about 23° C. and a relative atmospheric humidity of about 70%.

[17] = test system: Ustilago avenae; assay: In vitro test for the ED50 determination in microorganisms, Ustilago avenae; type: cell-based; conditions: 50% inhibition of fungal growth, tested at 0.1, 1, 10 and 100 ppm, 22° C., 3-5 days, photometric 620 nm
[18] = test system: Lolium; assay: Pre-emergence test, Lolium; type: in vivo; conditions: pre-emergence/greenhouse; 60 g a.i./ha; after three weeks
Protocol: as §1, §2, §6, §4, §5

With `Cc1sc(-c2ccc(Cl)cc2)nc1C1=C(O)C2(CCCCC2)CC1=O` [Example I-1-a-2] the “% damage, Avena fatua” value [1] was 100%, the “% damage, Sinapis” value [2] was 80% and the “% damage, Setaria” value [3] was 100%. The “% damage, Wheat” value [4] was 0%, the “% damage, Digitaria” value [5] was 100% and the “Kill rate in % after 7 d” value [6] was 100%. The “% damage, Setaria” value [7] was 100%, the “% damage, Matricana” value [8] was 95% and the ED50 value [9] was <0.1 ppm. The “% efficacy” value [10] was 93%, the ED50 value [11] was <0.1 ppm and the “% efficacy” value [12] was 91%. For the same molecule, the “% efficacy” value [13] was 92%, the “% damage, Alopecurus” value [14] was 90% and the “% damage, Soya bean” value [15] was 0%. The “% efficacy” value [16] was 100%, the ED50 value [17] was <0.1 ppm and the “% damage, Lolium” value [18] was 100%.
